Structures are written as SMILES.

`COC(=O)CCSc1ccc(C=C(C)c2ccc3c(c2)C(C)(C)CCC3(C)C)cc1` returned a melting point of 90 to 92 °C.
The result for `O=C(OO)c1ccc([N+](=O)[O-])cc1` reads 251 to 252 °C.
The molecule `OC1CCN(Cc2cccc(F)c2)CC1` showed a melting point of 61 to 62 °C.
Molecule `CCc1ccc(Cc2cn(C3OC(COC(=O)c4ccccc4)C(F)C(OC(=O)c4ccccc4)C3OC(=O)c3ccccc3)c3cccc(Cl)c23)cc1` (stereo unspecified) came in with a melting point of 137 to 138 °C.
The result for `COC(=O)CCCC#Cc1cc(Cl)ccc1NS(=O)(=O)c1ccc2nc(NC(C)=O)sc2c1` reads 138 to 140 °C.
The result for `CC1CCCN(C(=O)c2nc(-c3ccccc3)nc3ccccc23)C1` (stereo unspecified) reads 116 °C.
Take `CCOC(=O)c1ncc2[nH]c3ccc(Br)cc3c2c1C`: the melting point fell in the range of 231 to 232 °C.
The result for `O=C(O)c1ccccc1-c1ccc(C(=O)N2Cc3ccc(C(=O)NCc4cccnc4)n3Cc3ccccc32)cc1` reads 189 to 191 °C; that for `O=C(CN1C(=O)C2(COc3cc4c(cc32)CCO4)c2c(Cl)cccc21)Nc1ccccc1F` (stereo unspecified), 243 to 245 °C.
The result for `CC1(C)OC(c2ccc(S(C)(=O)=O)cc2)=C(c2cc3ccccc3o2)C1=O` reads 140 to 141 °C; that for `CN1C=C2c3ccccc3Cc3ccccc3C2C1` (stereo unspecified), 128 to 131 °C; that for `CC(C)OC1=NC(=O)N(C(C)C)S(=O)(=O)N1`, 164 to 167 °C.
With `Cc1cn(C)c2c1C(=O)CC(c1ccccc1)C2` (stereo unspecified) the figure was 155 to 156 °C; with `CCOC(=O)C1=C(C)NC(CS(=O)c2ccccc2)=C(C(=O)OCC)C1c1cccc([N+](=O)[O-])c1` (stereo unspecified), 160 to 162 °C; with `CC(=O)Nc1cccc(-n2nc(C#N)c(=O)n(Cc3ccc(Cl)cc3)c2=O)c1`, 196 °C.
For the molecule `Cc1ccc(-c2nc3ccccc3c(=O)[nH]2)cc1`, the melting point fell in the range of 239 to 241 °C.
The result for `COC(=O)C(C)c1ccc2c(c1)Cc1cc(OC)ccc1-2` (stereo unspecified) reads 98.5 to 100 °C.
The result for `Fc1ccc(CC2C=CC(OCc3ccccc3)=C3N=C4CCCCC4=C32)cc1` (stereo unspecified) reads 134 to 135 °C; that for `CC(C)C[C@H](NC(=O)N1CCN(c2ccccc2)CC1)C(=O)OCc1ccccc1`, 88 °C.
The molecule `CC1=C(S(C)(=O)=O)C(c2ccccc2[N+](=O)[O-])C(C(=O)OC2CCCC2)=C(N=CN(C)C)N1` (stereo unspecified) gave a melting point of 175 °C.
With `c1ccc(Nc2ccc(-c3ccc(N(c4ccccc4)c4ccccc4)cc3)cc2)cc1` the figure was 168 °C; with `Clc1ccc2ncc(Br)n2n1`, 132 to 137 °C.
The result for `COC(=O)C=C(Nc1ccccc1C#N)C(=O)OC` reads 116 to 118 °C; that for `COc1ccc([C@@H]2c3ccccc3C[C@@H]3CC(=O)NCCN32)cc1` (racemic), 196 to 198 °C.
`CC(C)N(C[C@H](O)[C@H](Cc1ccccc1)NC(=O)c1ccccc1NC(=O)OCc1ccccn1)NC(=O)OC(C)(C)C` showed a melting point of 155 to 157 °C.
The result for `CCCOCCOC(=O)C1=C(C)NC(C)=C([N+](=O)[O-])C1c1cccc([N+](=O)[O-])c1` (stereo unspecified) reads 161 °C; that for `COc1ccc(CN2CCC(C(O)(c3ccc(OC(F)(F)F)cc3)c3ccc(OC(F)(F)F)cc3)CC2)cc1`, 86 to 96 °C.
In turn, `COc1ccc(C(=O)c2c(-c3ccc(OC)cc3)sc3cc(OC)ccc23)cc1` displayed a melting point of 119 to 120 °C.
The result for `Cc1nc(N)c2nc(C)n(NC3CCOCC3)c2c1C` reads 240 to 242 °C; that for `CC12CCC(OC(=O)c3ccc(Cl)cc3)CC1=CCC1C2CCC2(C)C(=NO)CCC12` (stereo unspecified), 167 to 170 °C.
The result for `CN(C)NC(=O)N(OCc1ccccc1)C1c2ccccc2Oc2ccccc21` reads 117 °C; that for `C[C@H](NC(=O)OCc1ccccc1)C(=O)N1CCC[C@H]1C(=O)NC1CCCC1`, 118 to 119 °C; that for `COc1ccc2cc(C(C)C(=O)OCc3ccc(OC(=O)OCCC(C)(C)C)cc3)ccc2c1` (stereo unspecified), 63 to 64 °C.
For `CC(=O)c1cc(-c2ccc(C)cc2)c(OCc2ccccc2)c(C(C)(C)C)c1`, the melting point came out at 104 °C.
Regarding `CNC1CCN(c2ncc3ncnc(Nc4ccc(F)c(Cl)c4)c3n2)CC1`, the melting point was 174 to 176 °C.
The molecule `CC(C)COc1ccc(C(=O)N/C(=C\c2ccc(C(C)C)cc2)C(=O)NCCO)cc1` registered a melting point of 178 to 180 °C.
With `CCc1ccc(Nc2c(F)c(F)cc(F)c2F)c(CC(=O)N(C)C)c1` the figure was 105 to 106 °C; with `CN1CCN(Cc2ccc3c(=O)n(CCCCN4CC=C(c5ccccc5)CC4)c(=O)[nH]c3c2)CC1`, 167 to 168 °C; with `COc1cc2[nH]c(=O)n(S(=O)(=O)c3ccc(Cl)cc3)c(=O)c2cc1OC`, > 250 °C.
Turning to `CCCCCCCNC(=O)c1ccccc1CN1C(=O)C2(COc3cc4c(cc32)CCO4)c2ccccc21` (stereo unspecified), the melting point lay in the range of 196 to 198 °C.
With `COC(CN(C)c1nccc(Oc2ccc(NC(=O)c3cc(F)cc(N4CCOCC4)c3)c3ccccc23)n1)OC` the figure was 92 to 94 °C; with `CC(C)(C)n1ncc(S)c(Cl)c1=O`, 112 to 113 °C; with `COc1cc(C)c(S(=O)(=O)c2ccccc2C)cc1OC`, 126 to 128 °C.
With `COc1ccc(C2CNCc3c2ccc(OC)c3C)cc1OC` (stereo unspecified) the figure was 128 to 129 °C; with `O=CCCC12CC(c3ccccc31)c1ccccc12`, 135 to 140 °C.
The result for `O=S1NC(Cc2ccc3c(c2)OCO3)=NO1` (stereo unspecified) reads 132 to 133 °C; that for `COC(=O)CCc1ccc(OCc2cccc(-c3cccc(C(=O)O)c3)c2)cc1`, 180 to 185 °C.
Consider `O=C(N[C@H]1CC[C@H](CCN2CCN(c3nccc4c3OCC4)CC2)CC1)c1ccc(-c2cccnc2)cc1`, for which the melting point was determined as 235 °C.
With `CCOC(=O)C1=NNC2C(=O)N(Cc3ccccc3)C(=O)C12` (stereo unspecified) the figure was 100 to 101 °C; with `Cc1ccc(S(=O)(=O)N2[C@H](CCCCC#N)CC[C@@H]2c2ccc(F)cc2)cc1` (racemic), 79 °C.
The result for `CCOC(=O)CNC(=O)c1oc2cc(-c3ccc(Cn4c(C)nc5ccccc54)cc3)ccc2c1C` reads 184 to 186 °C; that for `CCOC(=O)C1=C(COCC(C)(O)c2ncc[nH]2)NC(C)=C(C(=O)OC)C1c1cccc(Cl)c1Cl` (stereo unspecified), 183 °C.
With `CSCCOC(=O)N(C)c1cnc(-c2cncc(F)c2)s1` the figure was 115 to 117 °C; with `OCCOCCNCc1ccc(-c2cc3ncnc(Nc4ccc5[nH]ccc5c4)c3s2)cc1`, 111 to 119 °C; with `Nc1nc2cc(Cl)c(Cl)cc2[nH]1`, 260 to 262 °C.
The molecule `COc1ccc(N2CC(O)c3cc(Cl)sc3S2(=O)=O)cc1` (stereo unspecified) gave a melting point of 127 to 132 °C.
The result for `CCOc1ccccc1-c1nc2n(C3CCCC3)[nH]c(CC)c-2c(=O)n1` reads 146 to 147 °C.
The molecule `CN(c1ccc(I)cc1)S(C)(=O)=O` gave a melting point of 106 to 107 °C.
With `Nc1ccc(S(=O)(=O)Nc2nnc(S(N)(=O)=O)s2)cc1` the figure was 241 to 242 °C.
With `C=C(C)COc1cc(C)c2c(c1C)CC(C)(C)N2C=O` the figure was 83 to 95 °C; with `CC(C(=O)N(C)C)n1cc(-c2ccccc2)c(-c2ccccc2)n1` (stereo unspecified), 122 to 124 °C.
As for `O=C(Nc1nc(-c2ccc([N+](=O)[O-])cc2)cs1)OCC(Cl)(Cl)Cl`, the melting point was in the range of 207 to 209 °C.
With `CC(C)CNc1cccnc1N1CCN(C(=O)c2ccc(C(=O)NC(C)(C)CO)cn2)CC1` the figure was 140 to 143 °C.
In turn, `CCOC(=O)C1CCN(c2nnc(-c3ccc(C)cc3)c(-c3ccc(C)cc3)n2)CC1` yielded a melting point of 102 to 104 °C.
Molecule `COCCNC(=O)c1ccc(C(=O)N2CCN(c3ncccc3NC(C)C)CC2)nc1` came in with a melting point of 122 to 124 °C.
With `Nc1c([N+](=O)[O-])sc2cc(Cl)ccc12` the figure was 243 to 245 °C.
With `CC(C)(C(=O)O)C(=O)NCCc1cn(C(c2ccccc2)(c2ccccc2)c2ccccc2)cn1` the figure was 161 to 162 °C; with `CCS(=O)(=O)Nc1cc(-n2nc3ccc(Cl)cn3c2=O)c(F)cc1Cl`, 120 to 122 °C; with `Cc1ccc(-c2ccc3c(c2)C=C(C(=O)Nc2ccc(CNc4cccnc4)cc2)CC3)cc1`, 212 to 214 °C.
The result for `Cc1oc2cc(C3CCNC(=O)C3)ccc2c1C` (stereo unspecified) reads 195 to 197 °C.
Regarding `CCCc1nn(C)c2c(=O)[nH]c(Cc3cccc(N)c3)nc12`, the melting point was in the range of 207 to 210 °C.
The result for `C#Cc1cc(Nc2ncnc3cnc(C)cc23)ccc1F` reads 225 °C; that for `COc1ccc(NC(=O)Nc2nc3nc(NCCCN4CCN(C)CC4)ncc3cc2-c2c(Cl)cccc2Cl)cc1`, 93.5 to 100 °C; that for `CC(C)(C)OC(=O)Nc1ccsc1CC(=O)O`, 70 to 72 °C.
The result for `Cc1ccc(C2COc3c(C)c(C)cc(C)c32)nc1` (stereo unspecified) reads 69 to 70 °C; that for `CC(=O)NCCNc1ccc(C2=NNC(=O)CC2C)cc1[N+](=O)[O-]` (stereo unspecified), 222 °C; that for `O=Cc1cn([C@H]2CCc3c(F)cc(F)cc3C2)c(=S)[nH]1`, > 285 °C.
On to `Cc1nc(NC(=O)N(C)C)nc(C)c1Cl`, for which the melting point lay in the range of 127 to 129 °C.
With `OCc1ccc(Cl)cc1C(O)c1ccccc1` (stereo unspecified) the figure was 102 to 107 °C; with `Cc1cc(Cl)c2c(ccc3nc(C)[nH]c32)n1`, 314 to 330 °C; with `CSc1ccc(-c2c(Br)cnn2-c2ccc(F)cc2)cc1`, 85 to 87 °C.
With `Nc1nc2c(ncn2COCCCP(=O)(O)O)c(=O)[nH]1` the figure was 202 °C; with `C#CCOc1ccc(/C=C/C(=O)Nc2ccccc2C(=O)O)cc1OC`, 191 to 193 °C; with `Nc1ccc(CCCCC(=O)O)nc1`, 80 to 82 °C.
The result for `N[C@@H](Cc1ccc(N(CCCl)CCCl)cc1)C(=O)N[C@@H](Cc1cccc(C2CCCC2)c1)C(=O)O` reads 80 to 90 °C; that for `O=C(NOCC(O)CO)c1cc(Br)c(F)c(F)c1Nc1ccccc1F` (stereo unspecified), 144 °C.

Values taken from a melting point compilation (Tetko et al.; mined from patent text by program, amines drawn as free bases though some values may be those of a salt).
